These are literature values, as cited in patent US20070032536A1, “Compounds, compositions and methods” (priority 2003, published 2007).

For this data set, the system named is A549 cells. Particulars: data provided by National Cancer Institute, Developmental Therapeutic Program.

On to `O=c1[nH]cc(F)c(=O)[nH]1` [5-fluorouracil], for which the GI50 is 1000 nM.

For the compound `COc1cccc2c1C(=O)c1c(O)c3c(c(O)c1C2=O)C[C@@](O)(C(=O)CO)C[C@@H]3O[C@H]1C[C@H](N)[C@H](O)[C@H](C)O1` [doxorubicin], the GI50 is 63 nM.

For `NC(=O)NO` [hydroxyurea], the GI50 was 500000 nM.

Consider `CC(=O)O[C@H]1C(=O)[C@@]2(C)[C@H]([C@H](OC(=O)c3ccccc3)[C@]3(O)C[C@H](OC(=O)[C@H](O)[C@@H](NC(=O)c4ccccc4)c4ccccc4)C(C)=C1C3(C)C)[C@]1(OC(C)=O)CO[C@@H]1C[C@@H]2O` [paclitaxel], for which the GI50 is 4 nM.

By GI50 is commonly meant the concentration giving 50% growth inhibition.
